Measured values from PubChem BioAssay (NCI).
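Assay format: 96-well plates, 48-hour exposure. TGI is the concentration that stops growth completely.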

How the values were obtained:
Assay in all cases: NCI-60 cell line screen, 48 h
UACC-62 melanoma = test system: UACC-62 melanoma
MCF7 breast = test system: MCF7 breast
HS 578T breast = test system: HS 578T breast
SK-OV-3 ovarian = test system: SK-OV-3 ovarian
SF-539 CNS = test system: SF-539 CNS
OVCAR-5 ovarian = test system: OVCAR-5 ovarian
SK-MEL-28 melanoma = test system: SK-MEL-28 melanoma
MDA-MB-231 breast = test system: MDA-MB-231 breast
CCRF-CEM leukemia = test system: CCRF-CEM leukemia
NCI-H23 lung = test system: NCI-H23 lung
A498 renal = test system: A498 renal
HCT-15 colon = test system: HCT-15 colon
BT-549 breast = test system: BT-549 breast
DU-145 prostate = test system: DU-145 prostate
NCI-H460 lung = test system: NCI-H460 lung
MALME-3M melanoma = test system: MALME-3M melanoma
HCT-116 colon = test system: HCT-116 colon
NCI-H226 lung = test system: NCI-H226 lung
CAKI-1 renal = test system: CAKI-1 renal
EKVX NSCLC = test system: EKVX NSCLC
OVCAR-3 ovarian = test system: OVCAR-3 ovarian
T-47D breast = test system: T-47D breast
UACC-257 melanoma = test system: UACC-257 melanoma
MDA-MB-435 = test system: MDA-MB-435
SR leukemia = test system: SR leukemia
OVCAR-4 ovarian = test system: OVCAR-4 ovarian
SF-268 CNS = test system: SF-268 CNS
K-562 leukemia = test system: K-562 leukemia
IGROV1 ovarian = test system: IGROV1 ovarian
MDA-N = test system: MDA-N
RPMI-8226 leukemia = test system: RPMI-8226 leukemia
HOP-62 NSCLC = test system: HOP-62 NSCLC
NCI-H522 lung = test system: NCI-H522 lung
HT29 colon = test system: HT29 colon
UO-31 renal = test system: UO-31 renal
HOP-92 NSCLC = test system: HOP-92 NSCLC
HCC-2998 colon = test system: HCC-2998 colon
SN12C renal = test system: SN12C renal
786-0 renal = test system: 786-0 renal
SW-620 colon = test system: SW-620 colon
PC-3 prostate = test system: PC-3 prostate
LOX IMVI melanoma = test system: LOX IMVI melanoma
SF-295 CNS = test system: SF-295 CNS
SNB-75 CNS = test system: SNB-75 CNS
SK-MEL-5 melanoma = test system: SK-MEL-5 melanoma
TK-10 renal = test system: TK-10 renal
RXF 393 renal = test system: RXF 393 renal
U251 CNS = test system: U251 CNS
M14 melanoma = test system: M14 melanoma
HL-60(TB) leukemia = test system: HL-60(TB) leukemia
A549 NSCLC = test system: A549 NSCLC
NCI/ADR-RES ovarian = test system: NCI/ADR-RES ovarian
KM12 colon = test system: KM12 colon
COLO 205 colon = test system: COLO 205 colon
OVCAR-8 ovarian = test system: OVCAR-8 ovarian
SNB-19 CNS = test system: SNB-19 CNS
ACHN renal = test system: ACHN renal
SK-MEL-2 melanoma = test system: SK-MEL-2 melanoma
MOLT-4 leukemia = test system: MOLT-4 leukemia

SMILES: C[C@]12CCC(=O)C=C1CC[C@@H]1[C@@H]2[C@@H](O)C[C@@]2(C)[C@H]1CC[C@]2(O)C(=O)COC(=O)C1CCCC1
- TGI (UACC-62 melanoma): > 100 µM
- TGI (MCF7 breast): > 100 µM
- TGI (HS 578T breast): > 100 µM
- TGI (SK-OV-3 ovarian): > 100 µM
- TGI (SF-539 CNS): > 100 µM
- TGI (OVCAR-5 ovarian): > 100 µM
- TGI (SK-MEL-28 melanoma): > 100 µM
- TGI (MDA-MB-231 breast): > 100 µM
- TGI (CCRF-CEM leukemia): > 100 µM
- TGI (NCI-H23 lung): > 100 µM
- TGI (A498 renal): > 100 µM
- TGI (HCT-15 colon): > 100 µM
- TGI (BT-549 breast): > 100 µM
- TGI (DU-145 prostate): > 100 µM
- TGI (NCI-H460 lung): > 100 µM
- TGI (MALME-3M melanoma): > 100 µM
- TGI (HCT-116 colon): > 100 µM
- TGI (NCI-H226 lung): > 100 µM
- TGI (CAKI-1 renal): > 100 µM
- TGI (EKVX NSCLC): > 100 µM
- TGI (OVCAR-3 ovarian): > 100 µM
- TGI (T-47D breast): > 100 µM
- TGI (UACC-257 melanoma): > 100 µM
- TGI (MDA-MB-435): > 100 µM
- TGI (SR leukemia): > 100 µM
- TGI (OVCAR-4 ovarian): > 100 µM
- TGI (SF-268 CNS): > 100 µM
- TGI (K-562 leukemia): > 100 µM
- TGI (IGROV1 ovarian): > 100 µM
- TGI (MDA-N): > 100 µM
- TGI (RPMI-8226 leukemia): > 100 µM
- TGI (HOP-62 NSCLC): > 100 µM
- TGI (NCI-H522 lung): > 100 µM
- TGI (HT29 colon): > 100 µM
- TGI (UO-31 renal): > 100 µM
- TGI (HOP-92 NSCLC): > 100 µM
- TGI (HCC-2998 colon): > 100 µM
- TGI (SN12C renal): > 100 µM
- TGI (786-0 renal): > 100 µM
- TGI (SW-620 colon): > 100 µM
- TGI (PC-3 prostate): > 100 µM
- TGI (LOX IMVI melanoma): > 100 µM
- TGI (SF-295 CNS): > 100 µM
- TGI (SNB-75 CNS): > 100 µM
- TGI (SK-MEL-5 melanoma): > 100 µM
- TGI (TK-10 renal): > 100 µM
- TGI (RXF 393 renal): > 100 µM
- TGI (U251 CNS): > 100 µM
- TGI (M14 melanoma): > 100 µM
- TGI (HL-60(TB) leukemia): > 100 µM
- TGI (A549 NSCLC): > 100 µM
- TGI (NCI/ADR-RES ovarian): > 100 µM
- TGI (KM12 colon): > 100 µM
- TGI (COLO 205 colon): > 100 µM
- TGI (OVCAR-8 ovarian): > 100 µM
- TGI (SNB-19 CNS): > 100 µM
- TGI (ACHN renal): > 100 µM
- TGI (SK-MEL-2 melanoma): > 100 µM

SMILES: Cn1c(=O)c2c(nc3n(C)c(=O)c4ccccc4n23)n(C)c1=O
- TGI (UACC-62 melanoma): > 100 µM
- TGI (MCF7 breast): > 100 µM
- TGI (HS 578T breast): > 100 µM
- TGI (SK-OV-3 ovarian): > 100 µM
- TGI (SF-539 CNS): > 100 µM
- TGI (OVCAR-5 ovarian): > 100 µM
- TGI (SK-MEL-28 melanoma): > 100 µM
- TGI (MDA-MB-231 breast): > 100 µM
- TGI (CCRF-CEM leukemia): 44.9 µM
- TGI (NCI-H23 lung): > 100 µM
- TGI (A498 renal): > 63.6 µM
- TGI (HCT-15 colon): > 100 µM
- TGI (BT-549 breast): > 100 µM
- TGI (DU-145 prostate): > 83.6 µM
- TGI (NCI-H460 lung): > 100 µM
- TGI (MALME-3M melanoma): > 100 µM
- TGI (HCT-116 colon): > 100 µM
- TGI (MOLT-4 leukemia): 13.4 µM
- TGI (NCI-H226 lung): 58.7 µM
- TGI (CAKI-1 renal): > 100 µM
- TGI (EKVX NSCLC): > 100 µM
- TGI (OVCAR-3 ovarian): > 100 µM
- TGI (T-47D breast): > 100 µM
- TGI (UACC-257 melanoma): > 100 µM
- TGI (MDA-MB-435): > 100 µM
- TGI (SR leukemia): 20.1 µM
- TGI (OVCAR-4 ovarian): > 100 µM
- TGI (SF-268 CNS): > 100 µM
- TGI (K-562 leukemia): > 100 µM
- TGI (IGROV1 ovarian): > 100 µM
- TGI (MDA-N): > 100 µM
- TGI (RPMI-8226 leukemia): > 76.7 µM
- TGI (HOP-62 NSCLC): > 84.3 µM
- TGI (NCI-H522 lung): > 100 µM
- TGI (HT29 colon): > 100 µM
- TGI (UO-31 renal): > 100 µM
- TGI (HOP-92 NSCLC): > 100 µM
- TGI (HCC-2998 colon): > 100 µM
- TGI (SN12C renal): > 100 µM
- TGI (786-0 renal): > 100 µM
- TGI (SW-620 colon): > 100 µM
- TGI (PC-3 prostate): > 100 µM
- TGI (LOX IMVI melanoma): > 100 µM
- TGI (SF-295 CNS): > 91.4 µM
- TGI (SNB-75 CNS): > 93.5 µM
- TGI (SK-MEL-5 melanoma): > 100 µM
- TGI (TK-10 renal): > 100 µM
- TGI (RXF 393 renal): > 100 µM
- TGI (U251 CNS): > 100 µM
- TGI (M14 melanoma): > 100 µM
- TGI (HL-60(TB) leukemia): > 100 µM
- TGI (A549 NSCLC): > 100 µM
- TGI (NCI/ADR-RES ovarian): > 100 µM
- TGI (KM12 colon): > 100 µM
- TGI (COLO 205 colon): > 100 µM
- TGI (OVCAR-8 ovarian): > 100 µM
- TGI (SNB-19 CNS): > 100 µM
- TGI (ACHN renal): 66.7 µM
- TGI (SK-MEL-2 melanoma): > 100 µM
